In article PMC9486086, “Development of a UPLC-MS/MS method for the determination of orelabrutinib in rat plasma and its application in pharmacokinetics” (Frontiers in Pharmacology, 2022):
Read-outs that look alike come from different tables or passages of the source.

Columns and labels:
[1] = Pharmacokinetic study in rats after single oral dose (UPLC-MS/MS, non-compartmental analysis); type: in vivo; conditions: male, Sprague-Dawley, rat, plasma, single oral dose of 10 mg/kg, n = 6, mean ± SD
Excerpt: Six male Sprague-Dawley (SD) Rats (weighing 250 ± 20 g) were obtained from the Laboratory Animal Center of The First Affiliated Hospital of Wenzhou Medical University (Zhejiang, China). They were housed in an environmentally controlled rearing chamber and given food and water that met the standard for 1 week. The animal experiment was approved by the Ethics Committee for the Protection and Use of Laboratory Animals of The First Affiliated Hospital of Wenzhou Medical University (Zhejiang, China).
The rats were fasted for 12 h before the start of the experiment and were given free access to water. Oral gavage was administered to rats at a dose of 10 mg/kg of orelabrutinib dissolved in 0.5% sodium carboxymethylcellulose (CMC-Na). Blood was collected at different collection points at 0.333, 0.667, 1, 1.5, 2, 3, 4, 6, 8, 12, 24 and 48 h after administration. After collected, blood in centrifuge tube was centrifuged for 10 min at 13,000 × g at room temperature, and 100 μl of plasma was separated and stored at −80°C prior to analysis. The concentrations of the analyte were determined using this validated UPLC-MS/MS method, while the non-compartmental model was analyzed using DAS 2.0 software (Drug and Statistical Software of the Shanghai Mathematical Pharmacology Professional Committee, China), and pharmacokinetic parameters were calculated.

[2] = Stability of orelabrutinib in rat plasma under storage and analytical conditions; type: in vitro ADME; conditions: for Measured concentration, Mean ± SD / RE (relative error vs nominal): n = 5
Procedure: To investigate the stability of orelabrutinib in rat plasma, QC plasma samples of three concentrations were placed in different environments to examine the short-term, long-term, three freeze-thaw cycles and stability at 10°C. Short-term stability was determined by placing plasma samples at room temperature for at least 3 h. Long-term stability was determined by testing plasma samples after 21 days of storage at −80°C. The stability of the plasma samples was evaluated by measuring the stability of three freeze-thaw cycles from freezing (−80°C) to thawing (room temperature) three times. In addition, the stability was determined by storing the prepared plasma samples in an autosampler (10°C) for 4 h.

[3] = design: method as in Zhang et al., 2020; conditions: oral, ref Zhang et al., 2020, cited from earlier work
[4] = prepared plasma samples, autosampler 10°C for 4 h, nominal 2 ng/ml
[5] = prepared plasma samples, autosampler 10°C for 4 h, nominal 200 ng/ml
[6] = prepared plasma samples, autosampler 10°C for 4 h, nominal 1600 ng/ml
[7] = rat plasma, 21 days at −80°C, nominal 2 ng/ml
[8] = rat plasma, 21 days at −80°C, nominal 200 ng/ml
[9] = rat plasma, 21 days at −80°C, nominal 1600 ng/ml
[10] = rat plasma, room temperature at least 3 h, nominal 2 ng/ml
[11] = rat plasma, room temperature at least 3 h, nominal 200 ng/ml
[12] = rat plasma, three freeze-thaw cycles (−80°C to room temperature), nominal 2 ng/ml
[13] = rat plasma, three freeze-thaw cycles (−80°C to room temperature), nominal 200 ng/ml
[14] = rat plasma, three freeze-thaw cycles (−80°C to room temperature), nominal 1600 ng/ml

C=CC(=O)N1CCC(c2ccc(C(N)=O)c(-c3ccc(Oc4ccccc4)cc3)n2)CC1 [Orelabrutinib]
AUC(0-inf) [1]: 3600 ± 1540 ng·h/mL
AUC(0-t) [1]: 3590 ± 1540 ng·h/mL
Cmax [1]: 1930 ± 1030 ng/mL
Tmax [1]: 33.6 ± 10.2 min
half-life [1]: 495 ± 338 min
Measured concentration, Mean ± SD [2, 4]: 2.0 ± 0.1 ng/mL
RE (relative error vs nominal) [2, 4]: −0.2%
Measured concentration, Mean ± SD [2, 5]: 208.0 ± 5.3 ng/mL
RE (relative error vs nominal) [2, 5]: 4.0%
Measured concentration, Mean ± SD [2, 6]: 1649.2 ± 25.3 ng/mL
RE (relative error vs nominal) [2, 6]: 3.1%
Measured concentration, Mean ± SD [2, 7]: 2.1 ± 0.1 ng/mL
RE (relative error vs nominal) [2, 7]: 5.4%
Measured concentration, Mean ± SD [2, 8]: 212.6 ± 7.3 ng/mL
RE (relative error vs nominal) [2, 8]: 6.3%
Measured concentration, Mean ± SD [2, 9]: 1389.2 ± 147.3 ng/mL
RE (relative error vs nominal) [2, 9]: −13.2%
Measured concentration, Mean ± SD [2, 10]: 2.1 ± 0.1 ng/mL
RE (relative error vs nominal) [2, 10]: 6.1%
Measured concentration, Mean ± SD [2, 11]: 199.3 ± 4.8 ng/mL
RE (relative error vs nominal) [2, 11]: −0.4%
Measured concentration, Mean ± SD ([2]; rat plasma, room temperature at least 3 h, nominal 1600 ng/ml): 1603.9 ± 24.6 ng/mL
Measured concentration, Mean ± SD [2, 12]: 2.0 ± 0.1 ng/mL
RE (relative error vs nominal) [2, 12]: 1.0%
Measured concentration, Mean ± SD [2, 13]: 220.3 ± 8.5 ng/mL
RE (relative error vs nominal) [2, 13]: 10.2%
Measured concentration, Mean ± SD [2, 14]: 1773.7 ± 57.6 ng/mL
RE (relative error vs nominal) [2, 14]: 10.9%
Stability in plasma samples (in words) ([2]; rat plasma, room temperature, 10°C, three freeze (−80°C)/thaw (RT) cycles, −80°C for 21 days): stable
Dose dependence of AUC and Cmax ([3]; 64 healthy subjects, single 20-400 mg or multiple doses for 14 days): increased proportionally
Cmax ([3]; healthy subjects, dose not stated): ~300 ng/mL
